Assay results as given in US20100298141A1, “SUBSTITUTED PYRIDINE N-OXIDE HERBICIDES” (E. I. DU PONT DE NEMOURS AND COMPANY, priority 2007, published 2010).

How the values were obtained:
sugarcane = experiment: Test F pre-/postemergence test; type: in vivo, Saccharum officinarum; settings: for Sugarcane plant response rating: postemergence
Source text: Seeds of plant species selected from bermudagrass (Cynodon dactylon), Surinam grass (Brachiaria decumbens), large crabgrass (Digitaria sanguinalis), green foxtail (Setaria viridis), goosegrass (Eleusine indica), johnsongrass (Sorghum halepense), kochia (Kochia scoparia), pitted morningglory (Ipomoea lacunosa), purple nutsedge (Cyperus rotundus), common ragweed (Ambrosia elation), mustard (Brassica nigra), guineagrass (Panicum maximum), […] (Paspalum dilatatum), barnyardgrass (Echinochloa crus-galli), southern sandbur (Cenchrus echinatus), common sowthistle (Sonchus oleraceous), prickly […] spinosa), Italian ryegrass (Lolium multiflorum), common purslane (Portulaca oleracea), broadleaf signalgrass (Brachiaria platyphylla), common groundsel (Senecio vulgaris), common chickweed (Stellaria media), Virginia dayflower (Commelina virginica), annual bluegrass (Poa annua), naked crabgrass (Digitaria nuda), […] cochinchinensis), quackgrass (Elytrigia repens), Canada horseweed (Conyza canadensis), field bindweed (Convolvulus arvensis), […] (Bidens bipinnata), common mallow (Malva sylvestris), Russian thistle (Salsola kali), and sugarcane (Saccharum officinarum) were planted and treated preemergence with test chemicals formulated in a non-phytotoxic solvent mixture which included a surfactant. At a different time, sugarcane was treated with postemergence applications of some of the test chemicals formulated in the same manner. Plants were approximately 3- to 4-leaf stage for the postemergence treatments. Treated plants and controls were maintained in a greenhouse for 14 to 21 days, after which time all species were compared to controls and visually evaluated. […] A dash (-) response means no test result.

Redstem = experiment: Test C flooded paddy test; type: in vivo; settings: Flood
Source text: (§1) At time of treatment, test pots were flooded to 3 cm above the soil surface, treated by application of test compounds directly to the paddy water, and then maintained at that water depth for the duration of the test. Treated plants and controls were maintained in a greenhouse for 13 to 15 days, after which time all species were compared to controls and visually evaluated. […] A dash (-) response means no test result.

Ricefield Bulrush = experiment: Test C flooded paddy test; type: in vivo; settings: Flood
Source text: as §1

ducksalad = experiment: Test E flooded paddy test; type: in vivo, Heteranthera limosa; settings: Flood, after 21 days, scale 0 to 100
Source text: (§2) Three plastic pots (ca. 16-cm diameter) per rate were partially filled with sterilized Tama silt loam soil comprising a 35:50:15 ratio of sand, silt and clay and 2.6% organic matter. Separate plantings for each of the three pots were as follows. Seeds from the U.S. of ducksalad (Heteranthera limosa), smallflower umbrella sedge (Cyperus difformis) and purple […] coccinea), were planted into one 16-cm pot for each rate. […] Seeds from the U.S. of barnyardgrass (Echinochloa crus-galli), late watergrass (Echinochloa oryzicola), early watergrass (Echinochloa oryzoides) and junglerice (Echinochloa colona) were planted into one 16-cm pot for each rate. Plantings were sequential so that crop and weed species were at the 2.0 to 2.5-leaf stage at time of treatment. Potted plants were grown in a greenhouse with day/night temperature settings of 30/27° C., and supplemental balanced lighting was provided to maintain a 16-hour photoperiod. Test pots were maintained in the greenhouse until test completion. At time of treatment, test pots were flooded to 3 cm above the soil surface, treated by application of test compounds directly to the paddy water, and then maintained at that water depth for the duration of the test. Effects of treatments on rice and weeds were visually evaluated by comparison to untreated controls after 21 days. […] A dash (-) response means no test result.

[1] = tested on: smallflower umbrella sedge; experiment: Test E flooded paddy test; type: in vivo, Cyperus difformis; settings: Flood, after 21 days, scale 0 to 100
Source text: as §2

purple redstem = experiment: Test E flooded paddy test; type: in vivo, Ammannia coccinea; settings: Flood, after 21 days, scale 0 to 100
Source text: as §2

rice flatsedge = experiment: Test E flooded paddy test; type: in vivo, Cyperus iria; settings: Flood, after 21 days, scale 0 to 100
Source text: as §2

bearded sprangletop = experiment: Test E flooded paddy test; type: in vivo, Leptochloa fascicularis; settings: Flood, after 21 days, scale 0 to 100
Source text: as §2

[2] = tested on: water seeded rice seedlings; experiment: Test E flooded paddy test; type: in vivo, Oryza sativa cv. ‘Japonica -M202’; settings: Flood, after 21 days, scale 0 to 100
Source text: as §2

[3] = tested on: transplanted rice seedlings; experiment: Test E flooded paddy test; type: in vivo, Oryza sativa cv. ‘Japonica-M202’; settings: Flood, after 21 days, scale 0 to 100
Source text: as §2

barnyardgrass = experiment: Test E flooded paddy test; type: in vivo, Echinochloa crus-galli; settings: Flood, after 21 days, scale 0 to 100
Source text: as §2

late watergrass = experiment: Test E flooded paddy test; type: in vivo, Echinochloa oryzicola; settings: Flood, after 21 days, scale 0 to 100
Source text: as §2

early watergrass = experiment: Test E flooded paddy test; type: in vivo, Echinochloa oryzoides; settings: Flood, after 21 days, scale 0 to 100
Source text: as §2

junglerice = experiment: Test E flooded paddy test; type: in vivo, Echinochloa colona; settings: Flood, after 21 days, scale 0 to 100
Source text: as §2

[4] = 250 g ai/ha, scale 0 to 100 (0 no effect, 100 complete control)
[5] = 250 g ai/ha, preemergence, scale 0 to 100
[6] = 31 g ai/ha, scale 0 to 100 (0 no effect, 100 complete control)
[7] = 62 g ai/ha, scale 0 to 100, 0 no effect, 100 complete control, 13 to 15 days
[8] = 125 g ai/ha, scale 0 to 100, 0 no effect, 100 complete control, 13 to 15 days
[9] = 125 g ai/ha, preemergence, scale 0 to 100
[10] = 500 g ai/ha, preemergence, scale 0 to 100

CC(c1c(C(F)(F)F)nn(C)c1OC(F)F)S(=O)(=O)c1cccc[n+]1[O-] (stereo not drawn) [Compound 5]
Sugarcane plant response rating (sugarcane; 62 g ai/ha, scale 0 to 100): 0
Sugarcane plant response rating (sugarcane; [4]): 7
Plant response rating, Sugarcane (sugarcane; [5]): 7
Plant response rating, Redstem (Redstem; [6]): 40
Plant response rating, Redstem (Redstem; [7]): 80
Plant response rating, Redstem (Redstem; [8]): 80
Plant response rating, Redstem (Redstem; [4]): 80
Plant response rating, Ricefield Bulrush (Ricefield Bulrush; [6]): 0
Plant response rating, Ricefield Bulrush (Ricefield Bulrush; [7]): 45
Plant response rating, Ricefield Bulrush (Ricefield Bulrush; [8]): 80
Plant response rating, Ricefield Bulrush (Ricefield Bulrush; [4]): 85

Cn1nc(C(F)(F)F)c(CS(=O)(=O)c2cccc[n+]2[O-])c1OC(F)F [Compound 4]
Plant response rating, Redstem (Redstem; [6]): 40
Plant response rating, Redstem (Redstem; [7]): 55
Plant response rating, Redstem (Redstem; [8]): 85
Plant response rating, Redstem (Redstem; [4]): 80
Plant response rating, Ricefield Bulrush (Ricefield Bulrush; [6]): 0
Plant response rating, Ricefield Bulrush (Ricefield Bulrush; [7]): 0
Plant response rating, Ricefield Bulrush (Ricefield Bulrush; [8]): 60
Plant response rating, Ricefield Bulrush (Ricefield Bulrush; [4]): 80

Cc1cc[n+]([O-])c([S+]([O-])Cc2c(C(F)(F)F)nn(C)c2OC(F)F)c1 (stereo not drawn) [Compound 1]
Plant response rating, Redstem (Redstem; [6]): 40
Plant response rating, Redstem (Redstem; [7]): 60
Plant response rating, Redstem (Redstem; [8]): 80
Plant response rating, Redstem (Redstem; [4]): 85
Plant response rating, Ricefield Bulrush (Ricefield Bulrush; [6]): 75
Plant response rating, Ricefield Bulrush (Ricefield Bulrush; [7]): 75
Plant response rating, Ricefield Bulrush (Ricefield Bulrush; [8]): 75
Plant response rating, Ricefield Bulrush (Ricefield Bulrush; [4]): 85

Cn1nc(C(F)(F)F)c(C[S+]([O-])c2cc(Br)cc[n+]2[O-])c1Cl (racemic) [Compound 35]
Plant response rating, Ducksalad (ducksalad; 16 g ai/ha): 0
Plant response rating, Ducksalad (ducksalad; 32 g ai/ha): 40
Plant response rating, Ducksalad (ducksalad; 64 g ai/ha): 50
Plant response rating, Ducksalad (ducksalad; 125 g ai/ha): 60
Plant response rating, Ducksalad (ducksalad; 250 g ai/ha): 100
Plant response rating, Sedge, Umbrella ([1]; 16 g ai/ha): 0
Plant response rating, Sedge, Umbrella ([1]; 32 g ai/ha): 45
Plant response rating, Sedge, Umbrella ([1]; 64 g ai/ha): 85
Plant response rating, Sedge, Umbrella ([1]; 125 g ai/ha): 85
Plant response rating, Sedge, Umbrella ([1]; 250 g ai/ha): 100
Plant response rating, Redstem (purple redstem; 16 g ai/ha): 0
Plant response rating, Redstem (purple redstem; 32 g ai/ha): 45
Plant response rating, Redstem (purple redstem; 64 g ai/ha): 85
Plant response rating, Redstem (purple redstem; 125 g ai/ha): 85
Plant response rating, Redstem (purple redstem; 250 g ai/ha): 100
Plant response rating, Flatsedge, Rice (rice flatsedge; 16 g ai/ha): 0
Plant response rating, Flatsedge, Rice (rice flatsedge; 32 g ai/ha): 30
Plant response rating, Flatsedge, Rice (rice flatsedge; 64 g ai/ha): 70
Plant response rating, Flatsedge, Rice (rice flatsedge; 125 g ai/ha): 80
Plant response rating, Flatsedge, Rice (rice flatsedge; 250 g ai/ha): 95
Plant response rating, Sprangletop, Brdd. (bearded sprangletop; 16 g ai/ha): 0
Plant response rating, Sprangletop, Brdd. (bearded sprangletop; 32 g ai/ha): 90
Plant response rating, Sprangletop, Brdd. (bearded sprangletop; 64 g ai/ha): 90
Plant response rating, Sprangletop, Brdd. (bearded sprangletop; 125 g ai/ha): 90
Plant response rating, Sprangletop, Brdd. (bearded sprangletop; 250 g ai/ha): 90
Plant response rating, Rice, Waterseeded ([2]; 16 g ai/ha): 0
Plant response rating, Rice, Waterseeded ([2]; 32 g ai/ha): 0
Plant response rating, Rice, Waterseeded ([2]; 64 g ai/ha): 0
Plant response rating, Rice, Waterseeded ([2]; 125 g ai/ha): 20
Plant response rating, Rice, Waterseeded ([2]; 250 g ai/ha): 30
Plant response rating, Rice, Transplanted ([3]; 16 g ai/ha): 0
Plant response rating, Rice, Transplanted ([3]; 32 g ai/ha): 0
Plant response rating, Rice, Transplanted ([3]; 64 g ai/ha): 0
Plant response rating, Rice, Transplanted ([3]; 125 g ai/ha): 15
Plant response rating, Rice, Transplanted ([3]; 250 g ai/ha): 15
Plant response rating, Barnyardgrass (barnyardgrass; 16 g ai/ha): 0
Plant response rating, Barnyardgrass (barnyardgrass; 32 g ai/ha): 0
Plant response rating, Barnyardgrass (barnyardgrass; 64 g ai/ha): 0
Plant response rating, Barnyardgrass (barnyardgrass; 125 g ai/ha): 0
Plant response rating, Barnyardgrass (barnyardgrass; 250 g ai/ha): 50
Plant response rating, Watergrass, Late (late watergrass; 16 g ai/ha): 0
Plant response rating, Watergrass, Late (late watergrass; 32 g ai/ha): 0
Plant response rating, Watergrass, Late (late watergrass; 64 g ai/ha): 0
Plant response rating, Watergrass, Late (late watergrass; 125 g ai/ha): 30
Plant response rating, Watergrass, Late (late watergrass; 250 g ai/ha): 60
Plant response rating, Watergrass, Early (early watergrass; 16 g ai/ha): 0
Plant response rating, Watergrass, Early (early watergrass; 32 g ai/ha): 0
Plant response rating, Watergrass, Early (early watergrass; 64 g ai/ha): 0
Plant response rating, Watergrass, Early (early watergrass; 125 g ai/ha): 20
Plant response rating, Watergrass, Early (early watergrass; 250 g ai/ha): 40
Plant response rating, Junglerice (junglerice; 16 g ai/ha): 0
Plant response rating, Junglerice (junglerice; 32 g ai/ha): 0
Plant response rating, Junglerice (junglerice; 64 g ai/ha): 0
Plant response rating, Junglerice (junglerice; 125 g ai/ha): 0
Plant response rating, Junglerice (junglerice; 250 g ai/ha): 40

Cc1cc[n+]([O-])c([S+]([O-])Cc2c(C(F)(F)F)nn(C)c2OCC(F)(F)F)c1 (racemic) [Compound 30]
Sugarcane plant response rating (sugarcane; [4]): 33
Plant response rating, Sugarcane (sugarcane; [5]): 12

Cn1nc(C(F)(F)F)c(C[S+]([O-])c2cccc[n+]2[O-])c1OC(F)F (stereo not drawn) [Compound 3]
Plant response rating, Sugarcane (sugarcane; 62 g ai/ha, Preemergence, scale 0 to 100): 17
Sugarcane plant response rating (sugarcane; 62 g ai/ha, scale 0 to 100): 32
Sugarcane plant response rating (sugarcane; [4]): 50
Plant response rating, Sugarcane (sugarcane; [5]): 50
Plant response rating, Redstem (Redstem; [6]): 20
Plant response rating, Redstem (Redstem; [7]): 40
Plant response rating, Redstem (Redstem; [8]): 45
Plant response rating, Redstem (Redstem; [4]): 85
Plant response rating, Ricefield Bulrush (Ricefield Bulrush; [6]): 55
Plant response rating, Ricefield Bulrush (Ricefield Bulrush; [7]): 55
Plant response rating, Ricefield Bulrush (Ricefield Bulrush; [8]): 75
Plant response rating, Ricefield Bulrush (Ricefield Bulrush; [4]): 80

Cc1cc[n+]([O-])c(S(=O)(=O)Cc2c(C(F)(F)F)nn(C)c2OC(F)F)c1 [Compound 2]
Plant response rating, Sugarcane (sugarcane; [9]): 70
Plant response rating, Sugarcane (sugarcane; [10]): 83
Plant response rating, Redstem (Redstem; [6]): 0
Plant response rating, Redstem (Redstem; [7]): 30
Plant response rating, Redstem (Redstem; [8]): 65
Plant response rating, Redstem (Redstem; [4]): 85
Plant response rating, Ricefield Bulrush (Ricefield Bulrush; [6]): 20
Plant response rating, Ricefield Bulrush (Ricefield Bulrush; [7]): 20
Plant response rating, Ricefield Bulrush (Ricefield Bulrush; [8]): 45
Plant response rating, Ricefield Bulrush (Ricefield Bulrush; [4]): 80

Cn1nc(C(F)(F)F)c(C[S+]([O-])c2cccc[n+]2[O-])c1OCC(F)(F)F (racemic) [Compound 28]
Plant response rating, Sugarcane (sugarcane; [9]): 17
Plant response rating, Sugarcane (sugarcane; [10]): 68
